Data on eight compounds can be found in ChEMBL document CHEMBL3351762, “The fungal natural product (1S,3S)-austrocortirubin induces DNA damage in HCT116 cells via a mechanism unique from other DNA damaging agents” (Bioorg Med Chem Lett, 2015).

The source made the active and inactive calls. No cut-off for these calls is given here.

As a reminder, the IC50 is the concentration at which inhibition is half-maximal.

The nature of experiment [1]: Cytotoxicity against human HCT116 cells after 72 hrs by cell counting Kit-8 assay. In kind it is functional, cell-based. Conditions: HCT-116, 72 h. Background: Tetrazolium dyes change colour on reduction, which living cells bring about.
A short description of experiment [2]: Cell cycle arrest in human HCT116 cells assessed as increase in accumulation at G2/M phase at 15 to 30 uM after 24 by flow cytometry. Format: functional, cell-based. The settings on record: HCT-116. Background: In flow cytometry, cells or beads pass a laser one at a time.
The nature of experiment [3]: Cell cycle arrest in human HCT116 cells assessed as increase in accumulation at S phase at 15 to 30 uM after 24 by flow cytometry. In kind it is functional, cell-based. The settings on record: HCT-116.
The nature of experiment [4]: Cell cycle arrest in human HCT116 cells assessed as cells at M phase at 15 to 30 uM after 24 by flow cytometry. Format: functional, cell-based. Conditions: HCT-116.
The subject of experiment [5] is HCT-116. The experiment in a line: Induction of DNA damage in human HCT116 cells at S phase at 15 to 30 uM after 24 hrs by gamma-H2AX-staining based-flow cytometry. In kind it is functional.
Experiment [6] relates to HCT-116. Put plainly: Induction of DNA damage in human HCT116 cells at G2/M phase at 15 to 30 uM after 24 hrs by gamma-H2AX-staining based-flow cytometry. Format: functional.
Experiment [7] relates to HCT-116. Put plainly: Induction of apoptosis in human HCT116 cells assessed as early-stage apoptotic cells at 15 uM after 24 to 48 hrs by Annexin V/PI-FITC staining based flow cytometry. Format: functional.
Experiment [8] in a line: Cell cycle arrest in human HCT116 cells assessed as increase in accumulation at G2/M phase at 100 to 200 uM after 24 by flow cytometry. The settings on record: HCT-116. In kind it is functional, cell-based.
Experiment [9] has as its system HCT-116. The experiment in a line: Induction of DNA damage in human HCT116 cells at G2/M phase at 100 to 200 uM after 24 hrs by gamma-H2AX-staining based-flow cytometry. In kind it is functional.
Experiment [10] is described as follows: Cell cycle arrest in human HCT116 cells assessed as decrease in accumulation at S phase at 100 to 200 uM after 24 by flow cytometry. Format: functional, cell-based. The settings on record: HCT-116.
Experiment [11] relates to HCT-116. The experiment in a line: Induction of DNA damage in human HCT116 cells at G0/G1 phase at 100 to 200 nM after 24 hrs by gamma-H2AX-staining based-flow cytometry.
The nature of experiment [12]: Cell cycle arrest in human HCT116 cells assessed as cells at M phase at 100 to 200 nM after 24 by flow cytometry. Conditions: HCT-116.
Experiment [13] concerns HCT-116. The experiment in a line: Induction of DNA damage in human HCT116 cells at S phase at 100 to 200 uM after 24 hrs by gamma-H2AX-staining based-flow cytometry. Format: functional.
Experiment [14] in a line: Cell cycle arrest in human HCT116 cells assessed as increase in accumulation at G2/M phase at 20 uM after 24 by flow cytometry. Format: functional, cell-based. Conditions: HCT-116.
A short description of experiment [15]: Cell cycle arrest in human HCT116 cells assessed as increase in accumulation at S phase at 20 uM after 24 by flow cytometry. The settings on record: HCT-116. Format: functional, cell-based.
The subject of experiment [16] is HCT-116. Put plainly: Induction of apoptosis in human HCT116 cells assessed as increase in mitosis at 20 uM after 24 by flow cytometry. In kind it is functional.

In turn, `COC1=CC(=O)c2c(O)c3c(c(O)c2C1=O)C[C@@](C)(O)C[C@@H]3O` displayed an IC50 in experiment [1] of 23.7 µM.
With `COC1=CC(=O)c2c(O)c3c(c(O)c2C1=O)C[C@](C)(O)C[C@@H]3O`, the result in [2] and in experiment [3] was Active. This compound came in with an IC50 in [1] of 3.7 µM. Further, in experiment [4], the outcome was inactive. The Activity was determined as 90% in the experiment on HCT-116 [5], 50% in the experiment with HCT-116 [6] and 75% in the experiment on HCT-116 [7].
For the compound `COC1=CC(=O)c2c(O)c3c(c(O)c2C1=O)C[C@](C)(O)CC3`, the IC50 in experiment [1] was 26.8 µM.
Still for that read-out and setting: to `C[C@]1(O)Cc2c(O)c3c(c(O)c2[C@@H](O)C1)C(=O)C=C(NCCc1ccccc1)C3=O` belongs 16 µM.
In [1], `C[C@]1(O)Cc2c(O)c3c(c(O)c2[C@@H](O)C1)C(=O)C=C(NCCc1ccc(Cl)cc1)C3=O` yielded an IC50 of 10.1 µM.
The same measure, in the same setting: to `COc1cc(O)c2c(c1O)C(=O)c1cc(C)ccc1C2=O` [AUSTROCORTIRUBIN] belongs > 50 µM.
Regarding `COc1cccc2c1C(=O)c1c(O)c3c(c(O)c1C2=O)C[C@@](O)(C(=O)CO)C[C@@H]3O[C@H]1C[C@H](N)[C@H](O)[C@H](C)O1` [DOXORUBICIN], the IC50 in experiment [1] worked out at 0.0199 µM. The result in experiment [8] and in experiment [10] was Active. Further, the Activity in the experiment on HCT-116 [9] and in the experiment on HCT-116 [13] was 50% throughout. Besides, the outcome (in the experiment on HCT-116 [11]; in experiment [12]) was inactive.
Compound `CC(=O)O[C@H]1C(=O)[C@@]2(C)[C@H]([C@H](OC(=O)c3ccccc3)[C@]3(O)C[C@H](OC(=O)[C@H](O)[C@@H](NC(=O)c4ccccc4)c4ccccc4)C(C)=C1C3(C)C)[C@]1(OC(C)=O)CO[C@@H]1C[C@@H]2O` [PACLITAXEL] had an IC50 in [1] of 0.0027 µM. In addition, the result in [14] and in experiment [15] was Active. Besides, the “fold change (FC)” value with HCT-116 [16] was 3.
